Results taken from US8822467B2 (Ligand Pharmaceuticals Inc., priority 2009, dated 2014).

Molecular target: T1, human CRTH2 (Homo sapiens, UniProt Q9Y5Y4)
T1 construct: expressed in transfected cells
T1 sequence (Q9Y5Y4 1-395): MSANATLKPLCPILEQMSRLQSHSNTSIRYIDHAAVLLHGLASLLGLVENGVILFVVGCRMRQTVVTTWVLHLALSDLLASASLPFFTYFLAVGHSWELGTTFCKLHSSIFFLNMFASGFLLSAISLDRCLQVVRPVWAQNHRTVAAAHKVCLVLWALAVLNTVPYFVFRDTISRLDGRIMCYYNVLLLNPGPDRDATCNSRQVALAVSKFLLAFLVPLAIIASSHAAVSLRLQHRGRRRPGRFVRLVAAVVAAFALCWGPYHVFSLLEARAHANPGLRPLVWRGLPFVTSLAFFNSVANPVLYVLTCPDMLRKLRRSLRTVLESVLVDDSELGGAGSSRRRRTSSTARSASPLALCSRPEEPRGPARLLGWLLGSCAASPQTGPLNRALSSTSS
Assay: [35S]GTPγS binding assay (SPA) on membranes from CHO-K1 cells stably expressing human CRTH2, stimulated with 60 nM DHK-PGD2
Format: biochemical
Settings: potency class symbols; Table 2; read-out: CRTH2 hGTPγS IC50
Procedure, shortened: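 Read-out is scintillation proximity: bound [35S]GTPγS (500 pM, with 10 μM GDP) was counted 4 h after centrifuging a 2 h ambient-temperature incubation. Reactions held 4 μg human CRTH2 CHO-K1 membrane protein, 60 nM DHK-PGD2 agonist and test compounds at increasing concentrations. Buffer: 20 mM HEPES pH 7.4, 10 mM MgCl2, 300 mM NaCl, 0.2% BSA, 1% DMSO.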

IC50, 1 to 10 µM:
CC(C)N(Cc1ccc(OCC(=O)O)c(-c2cccc(C(F)(F)F)c2)c1)S(=O)(=O)c1ccc(F)c(F)c1 [Example 152, 2-(3-trifluoromethylphenyl)-4-((3,4-difluoro-N-isopropylphenylsulfonamido)methyl)phenoxyacetic acid]
COc1cccc(S(=O)(=O)N(C)Cc2ccc(OCC(=O)O)c(-c3cccc(C(F)(F)F)c3)c2)c1 [Example 153, 2-(3-trifluoromethylphenyl)-4-((3-methoxy-N-methylphenylsulfonamido)methyl)phenoxyacetic acid]
CN(Cc1ccc(OCC(=O)O)c(-c2ccc(F)c(F)c2)c1)S(=O)(=O)c1ccccc1 [Example 154, 2-(3,4-difluorophenyl)-4-((N-methylphenylsulfonamido)methyl)phenoxyacetic acid]
CN(Cc1ccc(OCC(=O)O)c(-c2cnccn2)c1)S(=O)(=O)c1ccc(F)cc1 [Example 155, 2-(pyrazinyl)-4-((4-fluoro-N-methylphenylsulfonamido)methyl)phenoxyacetic acid]
Cc1cccc(-c2cc(CN(C)S(=O)(=O)c3ccc(F)cc3)ccc2OCC(=O)O)c1 [Example 156, 2-(3-methylphenyl)-4-((4-fluoro-N-methylphenylsulfonamido)methyl)phenoxyacetic acid]
CN(Cc1ccc(OCC(=O)O)c(-c2ccc(F)c(Cl)c2)c1)S(=O)(=O)c1ccc(F)cc1 [Example 157, 2-(3-chloro-4-fluorophenyl)-4-((4-fluoro-N-methylphenylsulfonamido)methyl)phenoxyacetic acid]
CC(C)N(Cc1ccc(OCC(=O)O)c(-c2cccc(C(F)(F)F)c2)c1)S(=O)(=O)c1ccc(F)cc1 [Example 158, 2-(3-trifluoromethylphenyl)-4-((4-fluoro-N-isopropylphenylsulfonamido)methyl)phenoxyacetic acid]
CN(Cc1ccc(OCC(=O)O)c(-c2cccc(C(F)(F)F)c2)c1)S(=O)(=O)Cc1ccccc1 [Example 159, 2-(3-trifluoromethylphenyl)-4-((N-methylbenzylsulfonamido)methyl)phenoxyacetic acid]
Cc1noc(C)c1S(=O)(=O)N(C)Cc1ccc(OCC(=O)O)c(-c2cccc(C(F)(F)F)c2)c1 [Example 160, 2-(3-trifluoromethylphenyl)-4-((N,3,5-trimethylisoxazole-4-sulfonamido)methyl)phenoxyacetic acid]
CN(Cc1cc(F)c(OCC(=O)O)c(-c2cccc(C(F)(F)F)c2)c1)S(=O)(=O)c1ccc(F)cc1 [Example 161, 2-(3-trifluoromethylphenyl)-4-((4-fluoro-N-methylphenylsulfonamido)methyl)-6-fluorophenoxyacetic acid]
CN(Cc1ccc(OCC(=O)O)c(-c2ccc(C(F)(F)F)cc2)c1)S(=O)(=O)c1ccc(F)cc1 [Example 162, 2-(4-trifluoromethylphenyl)-4-((4-fluoro-N-methylphenylsulfonamido)methyl)phenoxyacetic acid]
CN(Cc1ccc(OCC(=O)O)c(-c2cccc(Cl)c2)c1)S(=O)(=O)c1ccc(F)cc1 [Example 163, 2-(3-chlorophenyl)-4-((4-fluoro-N-methylphenylsulfonamido)methyl)phenoxyacetic acid]
COc1ccc(-c2cc(CN(C)S(=O)(=O)c3ccc(F)cc3)ccc2OCC(=O)O)cc1 [Example 164, 2-(4-methoxyphenyl)-4-((4-fluoro-N-methylphenylsulfonamido)methyl)phenoxyacetic acid]
CN(Cc1ccc(OCC(=O)O)c(-c2ccc(Cl)cc2)c1)S(=O)(=O)c1ccc(F)cc1 [Example 165, 2-(4-chlorophenyl)-4-((4-fluoro-N-methylphenylsulfonamido)methyl)phenoxyacetic acid]
CN(Cc1ccc(OCC(=O)O)c(-c2cc(F)ccc2F)c1)S(=O)(=O)c1ccccc1 [Example 166, 2-(2,5-difluorophenyl)-4-((N-methylphenylsulfonamido)methyl)phenoxyacetic acid]
CN(Cc1ccc(OCC(=O)O)c(-c2cccc(Cl)c2)c1)S(=O)(=O)c1ccccc1 [Example 167, 2-(3-chlorophenyl)-4-((N-methylphenylsulfonamido)methyl)phenoxyacetic acid]
CN(Cc1ccc(OCC(=O)O)c(-c2cc(C(F)(F)F)ccn2)c1)S(=O)(=O)c1ccc(F)cc1 [Example 168, 2-(4-trifluoromethylpyridinyl)-4-((4-fluoro-N-methylphenylsulfonamido)methyl)phenoxyacetic acid]
CN(Cc1ccc(OCC(=O)O)c(-c2ccccc2)c1)S(=O)(=O)c1ccccc1 [Example 169, 2-phenyl-4-((N-methylphenylsulfonamido)methyl)phenoxyacetic acid]
CN(Cc1ccc(OCC(=O)O)c(-c2cccc(C(F)(F)F)c2)c1)S(=O)(=O)c1ccccc1Cl [Example 170, 2-(3-trifluoromethylphenyl)-4-((2-chloro-N-methylphenylsulfonamido)methyl)phenoxyacetic acid]
Cc1noc(C)c1-c1cc(CN(C)S(=O)(=O)c2ccc(F)cc2)ccc1OCC(=O)O [Example 171, 2-(3,5-dimethylisoxazol-4-yl)-4-((4-fluoro-N-methylphenylsulfonamido)methyl)phenoxyacetic acid]
CN(Cc1ccc(OCC(=O)O)c(-c2cncnc2)c1)S(=O)(=O)c1ccccc1 [Example 172, 2-(pyrimidin-5-yl)-4-((N-methylphenylsulfonamido)methyl)phenoxyacetic acid]
CN(Cc1ccc(OCC(=O)O)c(-c2cccc(C(F)(F)F)c2)c1)S(=O)(=O)c1ccccn1 [Example 173, 2-(3-trifluoromethylphenyl)-4-((N-methylpyridine-2-sulfonamido)methyl)phenoxyacetic acid]
CC(C)N(Cc1ccc(OCC(=O)O)c(-c2cccc(C(F)(F)F)c2)c1)S(=O)(=O)c1cc(F)cc(F)c1 [Example 174, 2-(3-trifluoromethylphenyl)-4-((3,5-difluoro-N-isopropylphenylsulfonamido)methyl)phenoxyacetic acid]
CN(Cc1ccc(OCC(=O)O)c(-c2cccc(C(=O)N3CCOCC3)c2)c1)S(=O)(=O)c1ccc(F)cc1 [Example 175, 2-(3-morpholinocarbonylphenyl)-4-((4-fluoro-N-methylphenylsulfonamido)methyl)phenoxyacetic acid]
CN(Cc1ccc(OCC(=O)O)c(-c2ccc[n+]([O-])c2)c1)S(=O)(=O)c1ccc(F)cc1 [Example 176, 2-(N-oxy-pyridine-3-yl)-4-((4-fluoro-N-methylphenylsulfonamido)methyl)phenoxyacetic acid]
CN(Cc1ccc(OCC(=O)O)c(-c2ccccc2Cl)c1)S(=O)(=O)c1ccc(F)cc1 [Example 177, 2-(2-chlorophenyl)-4-((4-fluoro-N-methylphenylsulfonamido)methyl)phenoxyacetic acid]
CN(Cc1ccc(OCC(=O)O)c(-c2ccccc2)c1)S(=O)(=O)c1ccc(F)cc1 [Example 178, 2-phenyl-4-((4-fluoro-N-methylphenylsulfonamido)methyl)phenoxyacetic acid]
